Results from patent US10111431B2, “Application of biofilm formation inhibiting compounds enhances control of citrus canker” (priority 2013, dated 2018).

What was measured:
[1] = system: Xac 306 on grapefruit leaves; assay: Plant test in greenhouse, spray inoculation of grapefruit leaves; format: in vivo, Xanthomonas citri subsp. citri; conditions: for level of canker lesions on sprayed leaves / canker symptom development on grapefruit leaves (lesion numbers): D-leucine 10 mM, IAN 100 μg/mL; for level of canker lesions on sprayed leaves: CuSO4 100 μg/mL; for canker symptom development on grapefruit leaves: applied after (6 h) the pathogen inoculation; for canker symptom development on grapefruit leaves (lesion numbers): applied along with or prior to (6 h) pathogen inoculation; for log reduction in the number of CFU compared to untreated control: grapefruit leaves, 7 to 28 days after inoculation
Method: The effect of selected biofilm inhibitors on Xac infection/virulence-was investigated using 20-week-old potted grapefruit (Citrus paradise cv. Duncan grapefruit) plants in a quarantine greenhouse at the Citrus Research and Education Center, Lake Alfred, Fla. Copper (CuSO4, 100 μg/mL), D-leucine (10 mM), IAN (100 μg/mL) and a combination of these compounds were individually prepared in 100 ml of SDW. Bacterial inoculum was prepared by growing Xac 306 on NA plates at 28° C. for 48 h, suspending in SDW, adjusting concentration to approximately OD600=0.3 (5×10^8 CFU/mL). The inoculation was performed by a spray method as described previously (Li and Wang, 2012) with modifications. Briefly, the abaxial surfaces of fully expanded, immature leaves of each plant were sprayed with the following treatments: SDW, Xac 306, and Xac 306 combined with CuSO4 (100 μg/mL), D-leucine (10 mM), IAN (100 μg/mL), or a combination of these compounds. Silwett-L77 (silicone-polyether copolymer, Fisher) was added to each treatment at a 0.03% (V/V) final concentration. After inoculation, the plants were covered with plastic bags for 24 h to maintain a high (>90%) relative humidity and then kept in a greenhouse (approximately 60% relative humidity) for symptom development. All inoculations included a minimum of three immature leaves at a similar developmental stage from each plant, and each treatment comprised four plants. The experiments were repeated three times independently. SDW was applied as a negative control, and Xac306 mixed with SDW as positive control. To determine whether the timing of application of biofilm inhibitors in relation to Xac306 affected canker symptom suppression, the biofilm inhibitors were inoculated on leaves 6 h prior to or after inoculation with Xac306.
For bacterial population assays, the leaves of grapefruit plants were inoculated as described above. Two leaf discs randomly selected from each of three inoculated leaves were cut with a cork borer (0.8 cm in diameter) and then ground in 1 mL of SDW. The suspensions were serially diluted and plated on NA plates containing rifamycin. After incubation at 28° C. for 48 h, bacterial colonies were counted and the number of CFU per square centimeter of leaf tissue was calculated. The assays were repeated three times independently.

[2] = system: Xac strain 306 biofilm formation; assay: Biofilm formation on citrus abaxial leaf surfaces; format: cell-based, Xanthomonas citri subsp. citri; conditions: 10 mM D-leucine, 100 μg/mL IAN; 28° C., 24 h, crystal violet
Method: To gain further evidence of the effect of selected compounds on biofilm formation, biofilm formation in glass tubes and on leaf surfaces was examined as described previously (Li and Wang, 2012). Briefly, the standardized overnight culture of Xac 306 (OD600=1.0) were diluted 1:10 in fresh NB containing 1.0% glucose and the selected compound. For biofilm formation assay in glass tubes (Fischer Scientific, Pittsburgh, Pa.), 1 ml of the diluted bacterial suspension was transferred into each sterilized borosilicate glass tube and incubated at 28° C. without shaking for 48 h. The planktonic growth was then discarded and the tubes were gently washed three times with SDW. The biofilm formed on the tubes was visualized by staining with 0.1% CV. The stain remaining in cells on glass tubes was dissolved in 95% ethanol and quantified by measuring the optical density at 590 nm. For biofilm formation assay on leaf surfaces, 20 μl of the diluted bacterial suspension was dropped onto the abaxial surface of citrus leaves. The leaves were kept in a humidified chamber at 28° C. for 24 h without shaking. The biofilm formed on the leaf surfaces was visualized by staining with 0.1% CV. The biofilm assays were repeated three times with four replicates each time.

[3] = system: biofilm formation and copper resistance related genes in Xac 306; assay: qRT-PCR differential gene expression; format: cell-based, Xanthomonas citri subsp. citri; conditions: for expression of genes important for biofilm formation (qRT-PCR): IAN 100 μg/mL or D-leucine 10 mM, NB, 48 h, 15 genes, gyrA control; for expression of galU, gumB, gumD, copA and copB in planktonic or biofilm cells: in the presence of CuSO4, data not shown
Method: To investigate the mechanisms of D-leucine and IAN inhibiting Xac 306 biofilm formation, qRT-PCR analysis was used to determine differential gene expression for Xac306 cells with and without IAN (100 μg/mL) or D-leucine (10 mM). For this analysis, Xac306 was cultured in NB medium with or without biofilm inhibitor at 28° C. without shaking. Cells were collected after 48 h of incubation by centrifugation at 12,000×g for 5 min at 4° C. and used for RNA extraction. For the analysis of gene expression in Xac 306 planktonic and biofilm cells with sub-MICs CuSO4 concentrations, we followed the same procedure described for evaluation of resistance of Xac biofilm cells to copper in glass tubes. Both biofilm cells attached to the glass tube at the medium-air interface and planktonic cells in culture were used. Cells collected after 48 h of incubation in the presence of CuSO4 were washed by centrifugation at 12,000×g for 5 min at 4° C. with diethylpyrocarbonate treated water. Cells collected from five tubes were combined and served as one biological replicate. The pellet was stored at −80° C. until RNA extraction. Total RNA of Xac306 cells was isolated using RNA protect bacterial reagent (Qiagen, Valencia, Calif.) and RNeasy Mini Kit (Qiagen, Valencia, Calif.), following the manufacturer's instructions. The contaminated genomic DNA was removed using a TURBO DNA-free kit (Ambion, Austin, Tex.). RNA purity and quality were evaluated with a NanoDrop ND-1000 spectrophotometer (NanoDrop Technologies, Wilmington, Del.).
A one-step QRT-PCR was conducted using a 7500 fast real-time PCR system (Applied Biosystems, Foster City, Calif.) with a QuantiTect SYBR green RT-PCR kit (Qiagen, Valencia, Calif.) following the manufacturer's instructions. The gene specific primers (Table 1) were designed based on the genome sequence of Xac strain 306 (da Silver et al., 2002). In the biofilm inhibition mechanism studies, those primers targeted fifteen genes that were previously identified to be related bioflim formation in Xac strain 306 (Li and Wang, 2011). In the copper resistance analysis, those primers targeted the gum genes gumB and gumD polysaccharides—related gene galU, and copper resistance-related genes copA and copB (Teixeira et al., 2008; Behlau et al., 2012). The DNA gyrase subunit A encoding gene gyrA was used as endogenous control. The relative fold change in gene expression was calculated using the formula 2^−ΔΔCT (Livak and Schmittgen, 2001). qRT-PCR was repeated twice with four independent biological replicates each time.

Compound: CC(C)C[C@@H](N)C(=O)O [D-leucine]
- level of canker lesions on sprayed leaves [1]: less than that sprayed with the pathogen alone
- canker symptom development on grapefruit leaves [1]: did not affect the development of canker symptoms
- canker symptom development on grapefruit leaves (lesion numbers) [1]: able to reduce canker symptom development
- log reduction in the number of CFU compared to untreated control [1]: ~1.0 log
- biofilm formation on citrus leaf surfaces [2]: declined biofilm formation
- expression of genes important for biofilm formation (qRT-PCR) [3]: no induction or repression of any of the tested genes
- expression of galU, gumB, gumD, copA and copB in planktonic or biofilm cells [3]: did not affect express of any of the gene tested

Compound: N#CCc1c[nH]c2ccccc12 [IAN, 3-indolylacetonitrile]
- level of canker lesions on sprayed leaves [1]: less than that sprayed with the pathogen alone
- canker symptom development on grapefruit leaves [1]: did not affect the development of canker symptoms
- canker symptom development on grapefruit leaves (lesion numbers) [1]: able to reduce canker symptom development
- log reduction in the number of CFU compared to untreated control [1]: ~1.0 log
- biofilm formation on citrus leaf surfaces [2]: declined biofilm formation
- expression of genes important for biofilm formation (qRT-PCR) [3]: repression of chemotaxis and motility genes cheY, motB and pilB
- expression of galU, gumB, gumD, copA and copB in planktonic or biofilm cells [3]: did not affect express of any of the gene tested
